# Source: patent US6573243B1, “Pompilid wasp-derived neuropeptides” (Suntory Limited, priority 1997, dated 2003)
# System: nerve-muscle junction of a lobster's walking leg
# Test: Effect on excitatory postsynaptic potential (EPSP) in the neuromuscular specimen of a lobster's walking leg
# Conditions: for concentration at which the peptide enhanced EPSP: sample dissolved in artificial seawater on the nerve-muscle junction side, excitatory nerve electrically stimulated; for biological activity of the synthetic peptide compared with the natural peptide: synthetic vs natural peptide
# Protocol: The biological activity of the present peptides can be assayed according to the methods described in Japanese Patent Laid-Open No. 4-198161, in which excitatory postsynaptic potential (EPSP) is generated in the neuromuscular specimen of a lobster's walking leg, and the effect of the compound given to the nerve fibers on the EPSP is determined.
# In general, substances inhibiting EPSP are believed to be glutamate antagonists or inhibitors for the release of glutamic acid, and the substances enhancing EPSP are believed to be glutamate-like agonists or accelerators for the release of glutamic acid.
# The effect of the present peptides on excitatory postsynaptic potential (EPSP) was measured according to the method disclosed in Japanese Patent Laid-Open No. 4-198161. Thus, the shell of a lobster's walking leg was removed to expose the excitatory nerve and the inhibitory nerve, and a stimulating electrode was attached thereto. Then the nerve-muscle junction was exposed, and a recording electrode was attached thereto. The walking leg equipped with the electrodes was transferred to a container filled with an artificial seawater, and a partition was set up between the stimulating electrode part and the recording electrode part. The samples to be measured were dissolved into the artificial seawater in the recording electrode side (i.e., the side containing the nerve-muscle junction). Subsequently, the excitatory nerve was electrically stimulated and the EPSP, which was induced by glutamic acid released from the nerve end in response to the stimulation, was recorded.
Substance,concentration at which the peptide enhanced EPSP [nM],biological activity of the synthetic peptide compared with the natural peptide
H-Arg-Ile-Lys-Ile-Gly-Leu-Phe-Asp-Gln-Leu-Ser-Lys-Leu-NH2 (H-RIKIGLFDQLSKL-NH2) [peptide (1)],1000,same biological activity as the natural peptides
H-Arg-Ile-Lys-Ile-Gly-Leu-Phe-Asp-Gln-Leu-Ser-Arg-Leu-NH2 (H-RIKIGLFDQLSRL-NH2) [peptide (97)],200,same biological activity as the natural peptides
